Reference: patent US20140005163A1 (NOVARTIS AG, priority 2010, published 2014)
Converted amounts (≈) assume the structure as drawn. Where two headings read alike, the source gives them in different places.

Legend:
Solubility at pH 6.8 = format: physicochemical
Outline: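 Solubility was measured at pH 6.8 following the cited Zhou et al. (2007) procedure.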

mTOR = target: T1, mTOR (Homo sapiens, UniProt P42345); experiment: Biochemical assay for m-TOR by TR-FRET; conditions: 8 μM ATP, 400 nM GFP-4EBP1, 0.5 nM mTOR
T1 construct: purchased Invitrogen Corporation (Carlsbad/CA, USA) PV4753
Outline: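 mTOR (0.5 nM) was incubated at rt with ATP (8 μM final) and GFP-4EBP1 (400 nM final) in 50 mM HEPES pH 7.5, 10 mM MnCl2, 50 mM NaCl, 1 mM EGTA, 1 mM DTT. EDTA stop with Tb3+-anti-p4EBP1 [pThr46] antibody (0.5 nM); TR-FRET read 15 min later.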

[1] = test system: PKB Ser473 phosphorylation in Rat1-myr-HA-p110 alpha cells; experiment: Reverse protein array assay, PKB Ser473 phosphorylation in Rat1-myr-p110 alpha cells; format: cell-based; conditions: 0.5 h, pAkt Ser473, 30 minutes compound incubation, read-out: p-PKB IC50
Outline: (§1)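 Lysates were arrayed at four dilutions, and phospho-PKB Ser473 was quantified by relative fluorescence signal. They came from Rat1-myr-HA-p110 alpha, beta or delta cells exposed for 30 min at 37 °C to an 8-point compound series with 0.2% DMSO constant.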

[2] = test system: PKB Ser473 phosphorylation in Rat1-myr-HA-p110 beta cells; experiment: Reverse protein array assay, PKB Ser473 phosphorylation in Rat1-myr-p110 beta cells; format: cell-based; conditions: 0.5 h, pAkt Ser473, 30 minutes incubation, read-out: p-PKB IC50
Outline: as §1

[3] = test system: PKB Ser473 phosphorylation in Rat1-myr-HA-p110 delta cells; experiment: Reverse protein array assay, PKB Ser473 phosphorylation in Rat1-myr-p110 delta cells; format: cell-based; conditions: read-out: p-PKB IC50
Outline: as §1

[4] = test system: S6 Ribosomal Protein phosphorylation Ser235/236 in TSC1 null mouse embryo fibroblast (MEF) cells; experiment: Reverse protein array assay, S6 Ribosomal Protein phosphorylation Ser235/236 in TSC1 null MEF cells; format: cell-based; conditions: 1 h, pS6 ribosomal protein Ser235/236, 60 minutes incubation, read-out: p-S6 IC50
Outline: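 TSC1−/− MEFs, seeded and held ≥20 h at 37 °C/5% CO2, were exposed to 8-step serial compound dilutions (0.02% DMSO final; DMSO vehicle control) for 60 min at 37 °C. Cells were then lysed on ice for 10 min and lysates spotted onto reverse protein array chips.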

[5] = pH 6.8, aqueous buffer, thermodynamic from solid, read-out: solubility

T1 sequence (P42345 1360-2549 limits assumed): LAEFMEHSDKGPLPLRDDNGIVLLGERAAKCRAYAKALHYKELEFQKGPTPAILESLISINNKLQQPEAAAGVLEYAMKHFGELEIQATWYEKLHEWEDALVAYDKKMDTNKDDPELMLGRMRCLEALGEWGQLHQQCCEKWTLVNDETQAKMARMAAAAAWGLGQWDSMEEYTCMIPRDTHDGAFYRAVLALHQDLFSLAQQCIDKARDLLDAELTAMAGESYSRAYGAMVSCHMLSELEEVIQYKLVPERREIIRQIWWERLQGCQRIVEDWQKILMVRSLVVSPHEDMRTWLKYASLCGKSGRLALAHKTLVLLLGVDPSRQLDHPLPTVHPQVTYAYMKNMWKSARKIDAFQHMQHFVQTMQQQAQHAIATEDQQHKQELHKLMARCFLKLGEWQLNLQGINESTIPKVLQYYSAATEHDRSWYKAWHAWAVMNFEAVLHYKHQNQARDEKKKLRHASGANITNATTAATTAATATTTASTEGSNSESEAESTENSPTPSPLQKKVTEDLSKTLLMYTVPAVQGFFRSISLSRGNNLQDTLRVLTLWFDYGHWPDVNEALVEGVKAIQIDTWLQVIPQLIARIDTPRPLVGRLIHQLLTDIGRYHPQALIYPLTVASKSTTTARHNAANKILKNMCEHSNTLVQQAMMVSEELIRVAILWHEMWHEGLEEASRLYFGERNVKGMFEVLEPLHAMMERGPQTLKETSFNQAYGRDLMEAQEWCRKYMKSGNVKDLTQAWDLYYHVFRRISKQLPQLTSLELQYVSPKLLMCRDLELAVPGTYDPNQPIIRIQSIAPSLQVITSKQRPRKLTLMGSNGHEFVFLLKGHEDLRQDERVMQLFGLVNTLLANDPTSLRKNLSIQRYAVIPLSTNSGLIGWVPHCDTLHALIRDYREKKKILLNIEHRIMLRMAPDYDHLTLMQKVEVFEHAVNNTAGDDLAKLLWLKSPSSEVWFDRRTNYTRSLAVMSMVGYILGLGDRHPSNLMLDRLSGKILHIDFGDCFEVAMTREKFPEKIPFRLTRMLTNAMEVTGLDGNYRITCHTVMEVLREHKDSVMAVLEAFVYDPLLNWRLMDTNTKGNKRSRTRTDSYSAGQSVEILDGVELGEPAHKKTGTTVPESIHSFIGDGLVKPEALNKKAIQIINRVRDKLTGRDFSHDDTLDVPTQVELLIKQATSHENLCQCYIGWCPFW

Compound | solubility (Solubility at pH 6.8; pH 6.8) | IC50 (mTOR) | IC50 [1] | IC50 [2] | IC50 [3] | solubility (Solubility at pH 6.8; [5]) | IC50 [4]
COc1ccc(-c2ccc3ncc4c(c3c2)n(-c2ccnn2C)c(=O)n4C)cc1OC [Example 1.3, 8-(3,4-Dimethoxy-phenyl)-3-methyl-1-(2-methyl-2H-pyrazol-3-yl)-1,3-dihydro-imidazo[4,5-c]quinolin-2-one] | 2 µg/mL (≈ 4.81 µM) | 0.132 µM | 0.046 µM | 0.096 µM | 0.14 µM |  | 
Cc1nn(C(C)C)cc1-n1c(=O)n(C)c2cnc3ccc(-c4ccc(N(C)C)nc4)cc3c21 [Example 4.1, 8-(6-Dimethylamino-pyridin-3-yl)-1-(1-isopropyl-3-methyl-1H-pyrazol-4-yl)-3-methyl-1,3-dihydro-imidazo[4,5-c]quinolin-2-one] |  | 0.03 µM | 0.016 µM | 0.019 µM | 0.059 µM | 336 µg/mL (≈ 761 µM) | 0.015 µM
CCOc1cncc(-c2ccc3ncc4c(c3c2)n(-c2cn(C)nc2Cl)c(=O)n4C)c1 [Example 56.4, 1-(3-Chloro-1-methyl-1H-pyrazol-4-yl)-8-(5-ethoxy-pyridin-3-yl)-3-methyl-1,3-dihydro-imidazo[4,5-c]quinolin-2-one] |  | 0.016 µM | 0.009 µM | 0.011 µM | 0.011 µM | 14 µg/mL (≈ 32.2 µM) | 0.001 µM
COCc1cncc(-c2ccc3ncc4c(c3c2)n(-c2cn(C)nc2C)c(=O)n4C)c1 [Example 54.1, 1-(1,3-Dimethyl-1H-pyrazol-4-yl)-8-(5-methoxymethyl-pyridin-3-yl)-3-methyl-1,3-dihydro-imidazo[4,5-c]quinolin-2-one] |  | 0.079 µM | 0.095 µM | 0.092 µM | 0.112 µM | 164 µg/mL (≈ 396 µM) | 0.005 µM
COc1ccc(-c2ccc3ncc4c(c3c2)n(-c2cn(C)nc2C)c(=O)n4C)cc1OC [Example 1.8, 8-(3,4-Dimethoxy-phenyl)-1-(1,3-dimethyl-1H-pyrazol-4-yl)-3-methyl-1,3-dihydro-imidazo[4,5-c]quinolin-2-one] |  | 0.006 µM | 0.009 µM | 0.008 µM | 0.014 µM | 10 µg/mL (≈ 23.3 µM) | < 0.005 µM
COc1ccc(-c2ccc3ncc4c(c3c2)n(-c2cc(C)nn2C)c(=O)n4C)cn1 [Example 2.3, 1-(2,5-Dimethyl-2H-pyrazol-3-yl)-8-(6-methoxy-pyridin-3-yl)-3-methyl-1,3-dihydro-imidazo[4,5-c]quinolin-2-one] |  | 0.096 µM | 0.012 µM | 0.116 µM | 0.24 µM | 7 µg/mL (≈ 17.5 µM) | 
Cc1nn(CC(=O)N(C)C)c(C)c1-n1c(=O)n(C)c2cnc3ccc(-c4cncc(OC5CCC5)c4)cc3c21 [Example 60.2, 2-{4-[8-(5-Cyclobutoxy-pyridin-3-yl)-3-methyl-2-oxo-2,3-dihydro-imidazo[4,5-c]quinolin-1-yl]-3,5-dimethyl-pyrazol-1-yl}-N,N-dimethyl-acetamide] |  | 0.703 µM | 0.829 µM |  |  | 76 µg/mL (≈ 145 µM) | 0.011 µM
COCCOc1ccc(-c2ccc3ncc4c(c3c2)n(-c2cn(C)nc2C)c(=O)n4C)cn1 [Example 18, 1-(1,3-Dimethyl-1H-pyrazol-4-yl)-8-[6-(2-methoxy-ethoxy)-pyridin-3-yl]-3-methyl-1,3-dihydro-imidazo[4,5-c]quinolin-2-one] |  | 0.123 µM | 0.139 µM | 0.231 µM | 0.314 µM | 240 µg/mL (≈ 540 µM) | 
CCOc1cc(-c2ccc3ncc4c(c3c2)n(-c2c(C)nn(C)c2C)c(=O)n4C)ccc1OC [Example 28.2, 8-(3-Ethoxy-4-methoxy-phenyl)-3-methyl-1-(1,3,5-trimethyl-1H-pyrazol-4-yl)-1,3-dihydro-imidazo[4,5-c]quinolin-2-one] |  | 0.549 µM | 0.076 µM | 0.125 µM | 0.212 µM | 3 µg/mL (≈ 6.56 µM) | 

Now from value to molecule, other results behind:

solubility (Solubility at pH 6.8; pH 6.8) | IC50 (mTOR) | IC50 [1] | IC50 [2] | IC50 [3] | solubility (Solubility at pH 6.8; [5]) | Compound | IC50 [4]
 | 0.004 µM | < 0.005 µM | < 0.005 µM | 0.01 µM | 30 µg/mL (≈ 75.1 µM) | CNc1ccc(-c2ccc3ncc4c(c3c2)n(-c2cn(C)nc2C)c(=O)n4C)cn1 [Example 118.2, 1-(1,3-Dimethyl-1H-pyrazol-4-yl)-3-methyl-8-(6-methylamino-pyridin-3-yl)-1,3-dihydro-imidazo[4,5-c]quinolin-2-one] | 0.001 µM
 | < 0.003 µM | 0.013 µM | 0.046 µM | 0.326 µM | 17 µg/mL (≈ 42.5 µM) | Cc1ncc(-c2ccc3ncc4c(c3c2)n(-c2cn(C)nc2C)c(=O)n4C)cc1O [Example 185.1, 1-(1,3-Dimethyl-1H-pyrazol-4-yl)-8-(5-hydroxy-6-methyl-pyridin-3-yl)-3-methyl-1,3-dihydro-imidazo[4,5-c]quinolin-2-one] | 0.035 µM
 | 0.087 µM | 0.048 µM | 0.189 µM | 0.343 µM | > 473 µg/mL | COCc1ncc(-c2ccc3ncc4c(c3c2)n(-c2cn(C(C)C)nc2C)c(=O)n4C)cc1OC [Example 195.2, 1-(1-Isopropyl-3-methyl-1H-pyrazol-4-yl)-8-(5-methoxy-6-methoxymethyl-pyridin-3-yl)-3-methyl-1,3-dihydro-imidazo[4,5-c]quinolin-2-one] | 0.031 µM
 | 0.309 µM | 0.07 µM | 0.127 µM | 0.133 µM | 75 µg/mL (≈ 167 µM) | CNc1ncc(-c2ccc3ncc4c(c3c2)n(-c2c(C)nn(C)c2C)c(=O)n4C)cc1Cl [Example 146.4, 8-(5-Chloro-6-methylamino-pyridin-3-yl)-3-methyl-1-(1,3,5-trimethyl-1H-pyrazol-4-yl)-1,3-dihydro-imidazo[4,5-c]quinolin-2-one] | 0.012 µM
 | 0.004 µM | < 0.005 µM | 0.008 µM | 0.018 µM | 219 µg/mL (≈ 495 µM) | Cc1ncc(-c2ccc3ncc4c(c3c2)n(-c2cn(C)nc2C)c(=O)n4C)cc1OC(C)C [Example 84.1, 1-(1,3-Dimethyl-1H-pyrazol-4-yl)-8-(5-isopropoxy-6-methyl-pyridin-3-yl)-3-methyl-1,3-dihydro-imidazo[4,5-c]quinolin-2-one] | 0.002 µM
 | 0.014 µM | 0.021 µM | 0.03 µM | 0.043 µM | > 428 µg/mL | Cc1nn(C)cc1-n1c(=O)n(C)c2cnc3ccc(-c4cncc(OC(C)C)c4)cc3c21 [Example 58.1, 1-(1,3-Dimethyl-1H-pyrazol-4-yl)-8-(5-isopropoxy-pyridin-3-yl)-3-methyl-1,3-dihydro-imidazo[4,5-c]quinolin-2-one] | 0.003 µM
2 µg/mL (≈ 4.79 µM) | 0.007 µM | < 0.005 µM | < 0.005 µM | 0.021 µM |  | CNc1ncc(-c2ccc3ncc4c(c3c2)n(-c2cn(C)nc2C)c(=O)n4C)cc1F [Example 141.2, 1-(1,3-Dimethyl-1H-pyrazol-4-yl)-8-(5-fluoro-6-methylamino-pyridin-3-yl)-3-methyl-1,3-dihydro-imidazo[4,5-c]quinolin-2-one] | 0.001 µM
2 µg/mL (≈ 4.5 µM) | < 0.003 µM | < 0.005 µM | 0.006 µM | 0.013 µM |  | CCn1cc(-n2c(=O)n(C)c3cnc4ccc(-c5cnc(NC)nc5OC)cc4c32)c(C)n1 [Example 236, 1-(1-Ethyl-3-methyl-1H-pyrazol-4-yl)-8-(4-methoxy-2-methylamino-pyrimidin-5-yl)-3-methyl-1,3-dihydro-imidazo[4,5-c]quinolin-2-one] | 
 | 0.03 µM | 0.02 µM | 0.056 µM | 0.28 µM | 8 µg/mL (≈ 18.8 µM) | Cc1nn(C)cc1-n1c(=O)n(C)c2cnc3ccc(-c4cnc5c(c4)ncn5C)cc3c21 [Example 74, 1-(1,3-Dimethyl-1H-pyrazol-4-yl)-3-methyl-8-(3-methyl-3H-imidazo[4,5-b]pyridin-6-yl)-1,3-dihydro-imidazo[4,5-c]quinolin-2-one] | 0.023 µM
2 µg/mL (≈ 4.49 µM) | 0.207 µM | 0.096 µM | 0.086 µM | 0.176 µM |  | COc1ncc(-c2ccc3ncc4c(c3c2)n(-c2cn(C)nc2C)c(=O)n4C)cc1[N+](=O)[O-] [Example 66, 1-(1,3-dimethyl-1H-pyrazol-4-yl)-8-(6-methoxy-5-nitro-pyridin-3-yl)-3-methyl-1,3-dihydro-imidazo[4,5-c]quinolin-2-one] | 
 | 0.091 µM | 0.254 µM | 0.444 µM | 0.341 µM | 47 µg/mL (≈ 98.4 µM) | Cc1nn(C)cc1-n1c(=O)n(C)c2cnc3ccc(-c4cncc(N(C)S(C)(=O)=O)c4)cc3c21 [Example 121, N-{5-[1-(1,3-Dimethyl-1H-pyrazol-4-yl)-3-methyl-2-oxo-2,3-dihydro-1H-imidazo[4,5-c]quinolin-8-yl]-pyridin-3-yl}-N-methyl-methanesulfonamide] | 
